Experimental data published in patent US8163921B2, “Hepatitis C virus inhibitors” (Bristol-Myers Squibb Company, priority 2008, dated 2012).

Target: T1, HCV NS3/4A protease complex, BMS strain (UniProt P27958, C1454S/C1711G, species not given)
T1 construct: other: HCV NS3/4A enzyme assay; class symbols; numeric values; fused on or other part: three-lysine solubilising tail at the C-terminus of NS4A; purified on Ni-NTA from the pET21b vector (His tag implied)
Assay: FRET peptide assay to monitor HCV NS3/4A proteolytic activity (BMS strain)
Format: biochemical, HCV genotype 1a
Conditions: read-out: IC50 Range; HCV NS3/4A enzyme assay; class symbols
Text: HCV NS3 protease complexes, derived from the BMS strain, H77 strain or J4L6S strain, were generated, as described below. These purified recombinant proteins were generated for use in a homogeneous assay (see below) to provide an indication of how effective compounds of the present disclosure would be in inhibiting HCV NS3 proteolytic activity.
Serum from an HCV-infected patient was obtained from Dr. T. Wright, San Francisco Hospital. An engineered full-length cDNA (compliment deoxyribonucleic acid) template of the HCV genome (BMS strain) was constructed from DNA fragments obtained by reverse transcription-PCR (RT-PCR) of serum RNA (ribonucleic acid) and using primers selected on the basis of homology between other genotype 1a strains. From the determination of the entire genome sequence, a genotype 1a was assigned to the HCV isolate according to the classification of Simmonds et al. (See P Simmonds, K A Rose, S Graham, S W Chan, F McOmish, B C Dow, E A Follett, P L Yap and H Marsden, J. Clin. Microbiol., 31(6), 1493-1503 (1993)). […] The infectious clones, H77 (1a genotype) and J4L6S (1b genotype) were obtained from R. Purcell (NIH) and the sequences are published in Genbank (AAB67036, see Yanagi, M., Purcell, R. H., Emerson, S. U. and Buldi, J. Proc. Natl. Acad. Sci. U.S.A. 94(16),8738-8743 (1997); AF054247, see Yanagi, M., St Claire, M., Shapiro, M., Emerson, S. U., Purcell, R. H. and Bukh, J, Virology 244 (1), 161-172. (1998)).
NS3/4A protease complex-containing fractions were pooled and loaded on a desalting column Superdex-S200 pre-equilibrated with buffer D (25 mM HEPES, pH 7.5, 20% glycerol, 300 mM NaCl, 0.2% TritonX-100, 10 mM βMB). Sample was loaded at a flow rate of 1 mL/min. NS3/4A protease complex-containing fractions were pooled and concentrated to approximately 0.5 mg/ml. The purity of the NS3/4A protease complexes, derived from the BMS, H77 and J4L6S strains, were judged to be greater than 90% by SDS-PAGE and mass spectrometry analyses. The enzyme was stored at −80° C., thawed on ice and diluted prior to use in assay buffer.
The purpose of this in vitro assay was to measure the inhibition of HCV NS3 protease complexes, derived from the BMS strain, H77 strain or J4L6S strain, as described above, by compounds of the present disclosure. This assay provides an indication of how effective compounds of the present disclosure would be in inhibiting HCV NS3 proteolytic activity.
In order to monitor HCV NS3/4A protease activity, an NS3/4A peptide substrate was used. The substrate was RET S1 (Resonance Energy Transfer Depsipeptide Substrate; AnaSpec, Inc. cat #22991)(FRET peptide), described by Taliani et al. in Anal. Biochem. 240(2):60-67 (1996). The sequence of this peptide is loosely based on the NS4A/NS4B natural cleavage site for the HCV NS3 protease except there is an ester linkage rather than an amide bond at the cleavage site. The peptide also contains a fluorescence donor, EDANS, near one end of the peptide and an acceptor, DABCYL, near the other end. The fluorescence of the peptide is quenched by […] resonance energy transfer (RET) between the donor and the acceptor, but as the NS3 protease cleaves the peptide the products are released from RET quenching and the fluorescence of the donor becomes apparent.
The peptide substrate was incubated with one of the three recombinant NS3/4A protease complexes, in the absence or presence of a compound of the present disclosure. The inhibitory effects of a compound were determined by monitoring the formation of fluorescent reaction product in real time using a Cytofluor Series 4000.
Assay buffer: 50 mM HEPES, pH 7.5; 0.15 M NaCl; 0.1% Triton; 15% Glycerol; 10 mM βME. Substrate: 2 μM final concentration (from a 2 mM stock solution in DMSO stored at −20° C.). HCV NS3/4A protease type 1a (1b), 2-3 nM final concentration (from a 5 μM stock solution in 25 mM HEPES, pH 7.5, 20% glycerol, 300 mM NaCl, 0.2% Triton-X100, 10 mM βME). […]

SMILES | IC50 [nM]
C=C[C@@H]1C[C@]1(NC(=O)[C@@H]1C[C@@H](Oc2ncc(OC)c3ccc(Cl)cc23)CN1C(=O)[C@@H](Nc1nc(-c2ccc(O)cc2)cs1)C(C)(C)C)C(=O)NS(=O)(=O)C1CC1 [Example 60] | 1 to 20
C=C[C@@H]1C[C@]1(NC(=O)[C@@H]1C[C@@H](Oc2ncc(OC)c3ccc(Cl)cc23)CN1C(=O)[C@@H](Nc1nc(-c2cc(F)ccc2F)cs1)C(C)(C)C)C(=O)NS(=O)(=O)C1CC1 [Example 61] | 1 to 20
C=C[C@@H]1C[C@]1(NC(=O)[C@@H]1C[C@@H](Oc2ncc(OC)c3ccc(Cl)cc23)CN1C(=O)[C@@H](Nc1nc(-c2cc3cc(Cl)ccc3o2)cs1)C(C)(C)C)C(=O)NS(=O)(=O)C1CC1 [Example 62] | 1 to 20
C=C[C@@H]1C[C@]1(NC(=O)[C@@H]1C[C@@H](Oc2ncc(OC)c3ccc(Cl)cc23)CN1C(=O)[C@@H](Nc1nc(-c2ccc(C)c(C)c2)cs1)C(C)(C)C)C(=O)NS(=O)(=O)C1CC1 [Example 63] | 1 to 20
C=C[C@@H]1C[C@]1(NC(=O)[C@@H]1C[C@@H](Oc2ncc(OC)c3ccc(Cl)cc23)CN1C(=O)[C@@H](Nc1nc(-c2ccc(OC)c(F)c2)cs1)C(C)(C)C)C(=O)NS(=O)(=O)C1CC1 [Example 64] | 1 to 20
C=C[C@@H]1C[C@]1(NC(=O)[C@@H]1C[C@@H](Oc2ncc(OC)c3ccc(Cl)cc23)CN1C(=O)[C@@H](Nc1nc(-c2ccc(OCC)cc2)cs1)C(C)(C)C)C(=O)NS(=O)(=O)C1CC1 [Example 65] | 1 to 20
C=C[C@@H]1C[C@]1(NC(=O)[C@@H]1C[C@@H](Oc2ncc(OC)c3ccc(Cl)cc23)CN1C(=O)[C@@H](Nc1nc(-c2cc(F)cc(F)c2)cs1)C(C)(C)C)C(=O)NS(=O)(=O)C1CC1 [Example 66] | 1 to 20
C=C[C@@H]1C[C@]1(NC(=O)[C@@H]1C[C@@H](Oc2ncc(OC)c3ccc(Cl)cc23)CN1C(=O)[C@@H](Nc1nc(-c2ccccc2OC(F)(F)F)cs1)C(C)(C)C)C(=O)NS(=O)(=O)C1CC1 [Example 67] | 20 to 200
C=C[C@@H]1C[C@]1(NC(=O)[C@@H]1C[C@@H](Oc2ncc(OC)c3ccc(Cl)cc23)CN1C(=O)[C@@H](Nc1nc(-c2cc(C(F)(F)F)ccc2Cl)cs1)C(C)(C)C)C(=O)NS(=O)(=O)C1CC1 [Example 69] | 1 to 20
C=C[C@@H]1C[C@]1(NC(=O)[C@@H]1C[C@@H](Oc2ncc(OC)c3ccc(Cl)cc23)CN1C(=O)[C@@H](Nc1nc(-c2c(F)cccc2C(F)(F)F)cs1)C(C)(C)C)C(=O)NS(=O)(=O)C1CC1 [Example 71] | 20 to 200
C=C[C@@H]1C[C@]1(NC(=O)[C@@H]1C[C@@H](Oc2ncc(OC)c3ccc(Cl)cc23)CN1C(=O)[C@@H](Nc1nc(-c2cccc(C(F)(F)F)c2F)cs1)C(C)(C)C)C(=O)NS(=O)(=O)C1CC1 [Example 72] | 1 to 20
C=C[C@@H]1C[C@]1(NC(=O)[C@@H]1C[C@@H](Oc2ccc(OC)c3ccc(Cl)cc23)CN1C(=O)[C@@H](Nc1nc(-c2ccc(C(F)(F)F)cc2F)cs1)C(C)(C)C)C(=O)NS(=O)(=O)C1CC1 [Example 73] | 1 to 20
C=C[C@@H]1C[C@]1(NC(=O)[C@@H]1C[C@@H](Oc2ncc(OC)c3ccc(Cl)cc23)CN1C(=O)[C@@H](Nc1nc(-c2ccc(C(F)(F)F)c(F)c2)cs1)C(C)(C)C)C(=O)NS(=O)(=O)C1CC1 [Example 75] | 1 to 20
C=C[C@@H]1C[C@]1(NC(=O)[C@@H]1C[C@@H](Oc2ncc(OC)c3ccc(Cl)cc23)CN1C(=O)[C@@H](Nc1nc(-c2cc(Cl)ccc2Cl)cs1)C(C)(C)C)C(=O)NS(=O)(=O)C1CC1 [Example 76] | 1 to 20
C=C[C@@H]1C[C@]1(NC(=O)[C@@H]1C[C@@H](Oc2ncc(OC)c3ccc(Cl)cc23)CN1C(=O)[C@@H](Nc1nc(-c2ccc(OC)c(OC)c2)cs1)C(C)(C)C)C(=O)NS(=O)(=O)C1CC1 [Example 77] | 1 to 20
C=C[C@@H]1C[C@]1(NC(=O)[C@@H]1C[C@@H](Oc2ncc(OC)c3ccc(Cl)cc23)CN1C(=O)[C@@H](Nc1nc(-c2cc(C)ccc2OC(F)F)cs1)C(C)(C)C)C(=O)NS(=O)(=O)C1CC1 [Example 78] | 1 to 20
C=C[C@@H]1C[C@]1(NC(=O)[C@@H]1C[C@@H](Oc2ncc(OC)c3ccc(Cl)cc23)CN1C(=O)[C@@H](Nc1nc(-c2cc(F)c(F)c(F)c2)cs1)C(C)(C)C)C(=O)NS(=O)(=O)C1CC1 [Example 79] | 1 to 20
C=C[C@@H]1C[C@]1(NC(=O)[C@@H]1C[C@@H](Oc2ncc(OC)c3ccc(Cl)cc23)CN1C(=O)[C@@H](Nc1nc(-c2cccc(F)c2F)cs1)C(C)(C)C)C(=O)NS(=O)(=O)C1CC1 [Example 80] | 1 to 20
C=C[C@@H]1C[C@]1(NC(=O)[C@@H]1C[C@@H](Oc2ncc(OC)c3ccc(Cl)cc23)CN1C(=O)[C@@H](Nc1nc(-c2cc(F)c(F)cc2F)cs1)C(C)(C)C)C(=O)NS(=O)(=O)C1CC1 [Example 81] | 1 to 20
C=C[C@@H]1C[C@]1(NC(=O)[C@@H]1C[C@@H](Oc2ncc(OC)c3ccc(Cl)cc23)CN1C(=O)[C@@H](Nc1nc(-c2ccc(F)cc2F)c(C)s1)C(C)(C)C)C(=O)NS(=O)(=O)C1CC1 [Example 82] | 1 to 20
C=C[C@@H]1C[C@]1(NC(=O)[C@@H]1C[C@@H](Oc2ncc(OC)c3ccc(Cl)cc23)CN1C(=O)[C@@H](Nc1nc(-c2c(F)cccc2F)cs1)C(C)(C)C)C(=O)NS(=O)(=O)C1CC1 [Example 83] | 1 to 20
C=C[C@@H]1C[C@]1(NC(=O)[C@@H]1C[C@@H](Oc2ncc(OC)c3ccc(Cl)cc23)CN1C(=O)[C@@H](Nc1nc(-c2sc3ccccc3c2C)cs1)C(C)(C)C)C(=O)NS(=O)(=O)C1CC1 [Example 84] | 1 to 20
C=C[C@@H]1C[C@]1(NC(=O)[C@@H]1C[C@@H](Oc2ncc(OC)c3ccc(Cl)cc23)CN1C(=O)[C@@H](Nc1nc(-c2cc3ccccc3o2)cs1)C(C)(C)C)C(=O)NS(=O)(=O)C1CC1 [Example 87] | 1 to 20
C=C[C@@H]1C[C@]1(NC(=O)[C@@H]1C[C@@H](Oc2ncc(OC)c3ccc(Cl)cc23)CN1C(=O)[C@@H](Nc1nc(-c2cc(-c3ccc(Cl)cc3)no2)cs1)C(C)(C)C)C(=O)NS(=O)(=O)C1CC1 [Example 88] | 1 to 20

Same assay, conditions: read-out: IC50 Range; HCV NS3/4A enzyme assay; numeric values

SMILES | IC50 [nM]
C=C[C@@H]1C[C@]1(NC(=O)[C@@H]1C[C@@H](Oc2ncc(OC)c3ccc(Cl)cc23)CN1C(=O)C(Nc1ccc(-c2ccccc2)c(OC)c1)C(C)(C)C)C(=O)NS(=O)(=O)C1CC1 (single isomer, unassigned) [Example 18B] | 2500
C=C[C@@H]1C[C@]1(NC(=O)[C@@H]1C[C@@H](Oc2ncc(OC)c3ccc(Cl)cc23)CN1C(=O)[C@@H](Nc1nc(-c2ccc(C(F)(F)F)cc2C(F)(F)F)cs1)C(C)(C)C)C(=O)NS(=O)(=O)C1CC1 [Example 70] | 89
C=C[C@@H]1C[C@]1(NC(=O)[C@@H]1C[C@@H](Oc2ccc(OC)c3ccc(Cl)cc23)CN1C(=O)[C@@H](Nc1nc(-c2ccc(F)c(C(F)(F)F)c2)cs1)C(C)(C)C)C(=O)NS(=O)(=O)C1CC1 [Example 74] | 2
C=C[C@@H]1C[C@]1(NC(=O)[C@@H]1C[C@@H](Oc2ncc(OC)c3ccc(Cl)cc23)CN1C(=O)[C@@H](Nc1nc(-c2cc(-c3ccc(Cl)cc3Cl)no2)cs1)C(C)(C)C)C(=O)NS(=O)(=O)C1CC1 [Example 86] | 2
